Measured values published in patent publication US20080269326A1, “Use of 1-Phenyl-3-Dimethylamino-propane Compounds for Treating Neuropathic Pain” (GRUENENTHAL GmbH, priority 2007, published 2008).

Columns and labels:
[1] = test system: cold allodynia in Bennett animals; assay: Bennett model (chronic constriction injury), cold allodynia on 4° C. cold metal plate; format: in vivo, rat; settings: for ED50: Rattus norvegicus
Description: The effectiveness in treating neuropathic pain was investigated in the Bennett model (chronic constriction injury; Bennett and Xie, 1988, Pain 33: 87-107).
(§1) Sprague-Dawley rats weighing 140-160 g are provided with four loose ligatures of the right sciatic nerve under nembutal narcosis. The animals develop a hypersensitivity in the paw innervated by the damaged nerve, which after a healing phase of one week is quantified over about four weeks by means of a 4° C. cold metal plate (cold allodynia). The animals are observed for two minutes on this plate and the number of retractive movements of the damaged paw are measured. The effect of the substance is determined with reference to the base value before application of the substance, at four different times over a period of one hour(15, 30, 45 and 60 minutes after application) and the resultant area under the curve (AUD) as well as the inhibition of cold allodynia at the individual measurement points is expressed in percent effect with reference to the vehicle control (AUD) and to the initial value (individual measurement points). The cohort size is n=10.

[2] = test system: mechanical hyperalgesia in diabetic animals; assay: Streptozotocin diabetic neuropathy, mechanical hyperalgesia (Randall and Sellito); format: in vivo, rat; settings: diabetic rats; for ED50: Rattus norvegicus, ip, i.p., read-out: Mechanical hyperalgesia ED50 (95% confidence region)
Description: Male Sprague-Dawley rats weighing 160-180 g received an intra-peritoneal injection of streptozotocin (75 mg/kg body weight) dissolved in pH 4.6 citrate buffer. One week later diabetic animals were identified by measuring the blood glucose level, and those with a blood glucose level of ≧17 mM were included in the study. Three and four weeks after administration of streptozotocin the mechanical reaction threshold was measured in diabetic animals by the method of Randall and Sellito (1957 Arch. Int. Pharmacody. […]:409-419) before (pre-test) and at various times after administration of the test substance or vehicle (post-test). […] The maximum pressure exerted on the rear paw was 250 g. The end point of the mechanical reaction threshold in grams was determined based on the reaction of the animal (withdrawal of the rear paw, vocalisation or evasive reaction). The size of the cohort in the individual dose stages was n=10. The maximum possible response in percent (% MPE=% of maximum possible effect) was calculated according to the formula:
% MPE=(post-test−pre-test)/(250−pre-test)×100.
ED50 values (dose at which 50% maximum inhibition occurred) were determined by regression analysis from the % MPE values at the time of the maximum effect.

[3] = test system: tactile allodynia in Chung animals; assay: Chung model (spinal nerve ligature), tactile allodynia, electronic von Frey; format: in vivo; settings: Rattus norvegicus, ip, 0.5 h; rats, i.p., 30 minutes after administration
Description: Spinal nerve ligatures according to Kim & Chung (1992 Pain 50, 355-363) were applied to the left L5/L6 spinal nerves of male Spraque-Dawley rats. Four to six days after the operation the tactile threshold baseline (withdrawal threshold) was measured on the ipsilateral and contralateral rear paw by an electronic von Frey anaesthesiometer (IITC Life Science, USA). After the test and measurement of the baseline, morphine, gabapentin and some of the aforementioned compounds used according to the invention were administered. The tactile withdrawal thresholds were measured 30 minutes after the administration. The results are expressed as ED50 and % maximal possible effect (% MPE) on the ipsilateral side, in which the baseline is taken as 0% and the withdrawal threshold of a control group is taken as 100% MPE.

[4] = test system: cold allodynia in morphine-tolerant Bennett animals; assay: Bennett model cold allodynia in morphine-tolerant animals; format: in vivo, rat
Description: as §1
The underlying question is the action of a test substance having a presumably opioid action mechanism in patients who are tolerant or treatment-resistant to morphine. […] The action of test substances in naive (non-morphine-tolerant) animals and morphine-tolerant animals is compared in Table 4. […] Morphine [10 mg/kg i.p.], Compound 9 [10 and 21.5 mg/kg i.p.], Compound 10 [0.46 and 1 mg/kg i.p.], Compound 4 [21.5 mg/kg i.p.] and Compound 11 [21.5 mg/kg i.p.] were tested analogously to Example 1.

neuropathic pain = assay: Tests of substances together with naloxone in treating neuropathic pain; format: in vivo

Work on CC[C@@](O)(c1cccc(OC)c1)[C@@H](C)CN(C)C [Compound 2, (2S,3S)-1-dimethylamino-3-(3-methoxyphenyl)-2-methylpentan-3-ol] yielded an ED50 ([1]; ip, rats) of 26 mg/kg.
In the case of COc1cccc(C2(O)CCCCC2CN(C)C)c1 (stereo not drawn) [Tramadol], the ED50 [2] is reported as 9.2 mg/kg and the “Mechanical hyperalgesia Maximum effect in % MPE” value ([2]; 21.5 mg/kg i.p.) is reported as 86% (21.5 mg/kg) % MPE.
For NCC1(CC(=O)O)CCCCC1 [Gabapentin, reference compound], the ED50 [2] was 225 mg/kg, the “Mechanical hyperalgesia Maximum effect in % MPE” value ([2]; 464 mg/kg i.p.) was 80% (464 mg/kg) % MPE and the ED50 ([1]; po, rats) was 214 mg/kg. It also gave an ED50 [3] of 92.6 mg/kg.
In the case of CN1CC[C@]23c4c5ccc(O)c4O[C@H]2[C@@H](O)C=C[C@H]3[C@H]1C5 [Morphine, reference compound], the “Cold allodynia (% AUD) Morphine-tolerant animals” value ([4]; 10 mg/kg i.p.) is reported as −22.0 % AUD, the “anti-allodynic action (cold allodynia) in morphine-tolerant animals” value ([4]; i.p.) is reported as “no longer exhibits any effect” and the “effectiveness in treating neuropathic pain with naloxone” value (neuropathic pain) is reported as “effective”. For the same molecule, the ED50 [2] was 3 mg/kg, the “Mechanical hyperalgesia Maximum effect in % MPE” value ([2]; 10 mg/kg i.p.) was 89% (10 mg/kg) % MPE and the “Cold allodynia (% AUD) Naïve animals” value ([1]; 10 mg/kg i.p.) was 78.6 % AUD. It also gave an ED50 ([1]; ip, rats) of 7.1 mg/kg and an ED50 [3] of 4.6 mg/kg.
In the case of CC[C@H](c1cccc(O)c1)[C@H](C)CN(C)C [Compound 10, (1S,2S)-3-(3-dimethylamino-1-ethyl-2-methylpropyl)phenol], the “Cold allodynia (% AUD) Morphine-tolerant animals” value ([4]; 0.46 mg/kg i.p.) is reported as 22.9 % AUD, the “Cold allodynia (% AUD) Morphine-tolerant animals” value ([4]; 1 mg/kg i.p.) is reported as 39.9 % AUD and the “Cold allodynia (% AUD) Morphine-tolerant animals” value ([4]; 2.15 mg/kg i.p.) is reported as 13.0 % AUD. For the same molecule, the “effectiveness in treating neuropathic pain with naloxone” value (neuropathic pain) was “effective”, the “Cold allodynia (% AUD) Naïve animals” value ([1]; 0.46 mg/kg i.p.) was 29.0 % AUD and the “Cold allodynia (% AUD) Naïve animals” value ([1]; 1 mg/kg i.p.) was 42.7 % AUD. The “Cold allodynia (% AUD) Naïve animals” value ([1]; 2.15 mg/kg i.p.) was 59.2 % AUD, the ED50 ([1]; ip, rats) was 1.2 mg/kg and the ED50 [3] was 1.5 mg/kg.
CC[C@](O)(c1cccc(OC)c1)[C@H](C)CN(C)C [Compound 3, (2R,3R)-1-dimethylamino-3-(3-methoxyphenyl)-2-methylpentan-3-ol] gave an ED50 ([1]; ip, rats) of 9.2 mg/kg.
With C[C@@H](CN(C)C)[C@](C)(O)c1cccc(O)c1 [Compound 6, (1S,2S)-3-(3-dimethylamino-1-hydroxy-1,2-dimethylpropyl)phenol] the ED50 ([1]; ip, rats) was 32.6 mg/kg and the ED50 [3] was 4.65 mg/kg.
Work on CC(CN(C)C)=C(C)c1cccc(O)c1 [Compound 14, 3-(3-dimethylamino-1,2-dimethylpropenyl)-phenol] yielded an ED50 ([1]; ip, rats) of 3.6 mg/kg.
C[C@H](CN(C)C)[C@@](C)(O)c1cccc(O)c1 [Compound 7, (1R,2R)-3-(3-dimethylamino-1-hydroxy-1,2-dimethylpropyl)phenol] was tested, and the ED50 ([1]; ip, rats) was 11.1 mg/kg.
Molecule C[C@H](CN(C)C)[C@@](C)(O)c1cccc(O)c1 (racemic) [Compound 5, (1RS,2RS)-3-(3-dimethylamino-1-hydroxy-1,2-dimethylpropyl)-phenol] has an ED50 ([1]; ip, rats) of 15 mg/kg.
With CC[C@](O)(c1cccc(OC)c1)[C@H](C)CN(C)C (racemic) [Compound 1, (2RS,3RS)-1-dimethylamino-3-(3-methoxyphenyl)-2-methylpentan-3-ol] the ED50 ([1]; ip, rats) was 11.1 mg/kg and the ED50 [3] was 10.1 mg/kg.
In the case of CC[C@](O)(c1cccc(C(F)F)c1)[C@H](C)CN(C)C (racemic) [Compound 8, (2RS,3RS)-3-(difluoromethylphenyl)-1-dimethylamino-2-methylpentan-3-ol], the “Cold allodynia ED50” value ([1]; rats, i.p.) is reported as 17.1 mg/kg.
